# *1 amine or outer side, *2 acyl side, *3 side chain or, on linkers, in order; H or OH if unused. Where a SMILES comes first, the peptide text is derived from it. Bridges are numbered along the chain shown (N, C = ends). [ ]: non-standard residue; d: D form. X34 = O=C(C[C@@H](Cc1ccccc1)C(=O)[*:2])C12CC(CN[*:1])(C1)C2; cBu(1-CO,cis-3-CH2NH) = O=C([C@H]1C[C@@H](CN[*:1])C1)[*:2]; Ala(1-bicyclo(1.1.1)pentyl) = N[C@@H](CC12CC(C1)C2)C(=O)O; NMeNva(5-imidazol-1-yl) = CN[C@@H](CCCn1ccnc1)C(=O)O; Phe(4-guanidino) = N=C(N)Nc1ccc(C[C@H](N)C(=O)O)cc1; X44 = C[C@@H](c1ccccc1)[C@@H](C(=O)[*:2])N(C)[*:1]; X22 = CNC(=N)N(C)CCC[C@@H](C(=O)[*:2])N(C)[*:1]; Ala(pyrimidin-5-yl) = N[C@@H](Cc1cncnc1)C(=O)O; NMePhe(3-Me) = CN[C@@H](Cc1cccc(C)c1)C(=O)O; X45 = CN([C@@H](Cc1ccncc1F)C(=O)[*:2])[*:1]; NMeArg(Me) = CNC(=N)NCCC[C@H](NC)C(=O)O; X11 = CC(C)(F)CC[C@H](N[*:1])C(=O)[*:2]; NMeAha = CN[C@@H](CCN=[N+]=[N-])C(=O)O; Nle(5,5-F2) = CC(F)(F)CC[C@H](N)C(=O)O; Ala(cPent) = N[C@@H](CC1CCCC1)C(=O)O; Phe(2-F) = N[C@@H](Cc1ccccc1F)C(=O)O; NMe3Pal = CN[C@@H](Cc1cccnc1)C(=O)O; X1 = O=C(C12CC(CN[*:1])(C1)C2)[*:2]; X17 = O=C([C@H](CCCCF)N[*:1])[*:2]; Ala(cPr) = N[C@@H](CC1CC1)C(=O)O; NMeF = CN[C@@H](Cc1ccccc1)C(=O)O; PhLac = O=C(O)[C@@H](O)Cc1ccccc1; 3Pal = N[C@@H](Cc1cccnc1)C(=O)O; Gly(N(CH2)3NH2) = NCCCNCC(=O)O; Ahp(2) = CCCCC[C@H](N)C(=O)O; Cba = N[C@@H](CC1CCC1)C(=O)O; hLeu = CC(C)CC[C@H](N)C(=O)O; NMeAbu = CC[C@H](NC)C(=O)O; αMeC = C[C@](N)(CS)C(=O)O; NMeA = CN[C@@H](C)C(=O)O; Nle = CCCC[C@H](N)C(=O)O
# Target: phosphorylation levels of ERK1/2 in AsPC-1 (homozygous KRAS-G12D) cells (Homo sapiens, UniProt P01116, G12D)
# Assay: Cellular phospho-ERK assay in AsPC-1 cells (Alpha Screen), assay medium without fetal bovine serum;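 also: signal taken as phospho-ERK over total ERK per well, both detected in one multiplex bead assay, EC50 from four-parameter logistic fit of dose-response curves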
# Type: cell-based
# Details: phospho-ERK AlphaScreen, 18 h
# phosphorylation levels of ERK1/2 in AsPC-1 (homozygous KRAS-G12D) cells, sequence (P01116 1-186 G12D): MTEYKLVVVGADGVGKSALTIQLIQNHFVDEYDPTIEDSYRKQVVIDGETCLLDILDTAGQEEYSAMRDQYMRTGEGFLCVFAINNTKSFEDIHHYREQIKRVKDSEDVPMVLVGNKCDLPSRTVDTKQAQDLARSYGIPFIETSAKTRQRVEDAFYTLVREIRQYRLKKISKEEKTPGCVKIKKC
row,SMILES,EC50 [µM]
1,"CCCC[C@@H]1NC(=O)[C@H](Cc2cncnc2)NC(=O)[C@H](C)N(C)C(=O)[C@H](Cc2ccccc2)OC(=O)C23CC(CNC(=O)[C@H](Cc4ccccc4)N(C)C(=O)[C@H](CCCCF)NC(=O)[C@H](Cc4ccccc4F)NC1=O)(C2)C3 [compound 131, cyclo(FLac-NMeA-PyrimAla-Nle-Phe2F-NleF-NMeF-amBCP)] (cyclo([NMeA][Ala(pyrimidin-5-yl)][Nle][Phe(2-F)][X17][NMeF][X1][PhLac]))",2.33
2,"CC(C)CC[C@@H]1NC(=O)[C@H](Cc2ccccc2F)NC(=O)[C@H](CC23CC(C2)C3)NC(=O)[C@H](Cc2cncnc2)NC(=O)[C@H](C)N(C)C(=O)[C@H](Cc2ccccc2)OC(=O)C23CC(CNC(=O)[C@H](Cc4ccccc4)N(C)C1=O)(C2)C3 [compound 272, cyclo(FLac-NMeA-PyrimAla-AlaPent-Phe2F-hL-NMeF-amBCP)] (cyclo([NMeA][Ala(pyrimidin-5-yl)][Ala(1-bicyclo(1.1.1)pentyl)][Phe(2-F)][hLeu][NMeF][X1][PhLac]))",2.95
3,"CCCC[C@@H]1NC(=O)[C@H](Cc2cccnc2)NC(=O)[C@H](C)N(C)C(=O)[C@H](Cc2ccccc2)OC(=O)C23CC(CNC(=O)[C@H](Cc4ccccc4)N(C)C(=O)[C@H](CCCC)NC(=O)[C@H](Cc4ccccc4F)NC1=O)(C2)C3 [compound 236, cyclo(FLac-NMeA-3Pal-Nle-Phe2F-Nle-NMeF-amBCP)] (cyclo([3Pal][Nle][Phe(2-F)][Nle][NMeF][X1][PhLac][NMeA]))",1.44
4,"C[C@@H](c1ccccc1)[C@H]1C(=O)NCC23CC(C2)(C3)C(=O)O[C@@H](Cc2ccccc2)C(=O)N(C)[C@@H](C)C(=O)N[C@@H](Cc2cncnc2)C(=O)N[C@@H](CC2CC2)C(=O)N[C@@H](Cc2ccccc2F)C(=O)N[C@@H](CCC(C)(C)F)C(=O)N1C [compound 340, cyclo(FLac-NMeA-PyrimAla-cPrA-Phe2F-hL3F-NMeSbMeF-amBCP)] (cyclo([Ala(cPr)][Phe(2-F)][X11][X44][X1][PhLac][NMeA][Ala(pyrimidin-5-yl)]))",4.25
5,"CC(C)CC[C@@H]1NC(=O)[C@H](Cc2ccccc2F)NC(=O)[C@H](CC2CC2)NC(=O)[C@H](Cc2cncnc2)NC(=O)[C@H](C)N(C)C(=O)[C@H](Cc2ccccc2)OC(=O)C23CC(CNC(=O)[C@H](Cc4ccncc4F)N(C)C1=O)(C2)C3 [compound 337, cyclo(FLac-NMeA-PyrimAla-cPrA-Phe2F-hL-NMe4Pal2F-amBCP)] (cyclo([Ala(cPr)][Phe(2-F)][hLeu][X45][X1][PhLac][NMeA][Ala(pyrimidin-5-yl)]))",3.35
6,"CCCC[C@@H]1NC(=O)[C@H](Cc2ccccc2F)NC(=O)[C@H](CCCCF)NC(=O)[C@H](Cc2cncnc2)NC(=O)[C@H](C)N(C)C(=O)[C@H](Cc2ccccc2)OC(=O)C23CC(CNC(=O)[C@H](Cc4ccccc4)N(C)C1=O)(C2)C3 [compound 130, cyclo(FLac-NMeA-PyrimAla-NleF-Phe2F-Nle-NMeF-amBCP)] (cyclo([NMeA][Ala(pyrimidin-5-yl)][X17][Phe(2-F)][Nle][NMeF][X1][PhLac]))",2.03
7,"CCCC[C@@H]1NC(=O)[C@H](Cc2ccccc2)NC(=O)[C@H](C)N(C)C(=O)[C@H](Cc2ccccc2)OC(=O)C23CC(CNC(=O)[C@H](Cc4ccccc4)N(C)C(=O)[C@H](CCCC)NC(=O)[C@H](Cc4ccccc4F)NC1=O)(C2)C3 [compound 305, cyclo(FLac-NMeA-F-Nle-Phe2F-Nle-NMeF-amBCP)] (cyclo(F[Nle][Phe(2-F)][Nle][NMeF][X1][PhLac][NMeA]))",> 50.8
8,"CCCCC[C@@H]1NC(=O)[C@H](Cc2ccc(OC)cc2)NC(=O)[C@H](CC2CCC2)NC(=O)[C@H](Cc2ccc(NC(=N)N)cc2)NC(=O)[C@H](CCCNC(=N)NC)N(C)C(=O)[C@H](Cc2ccccc2)NC(=O)CSC[C@@](C)(C(N)=O)NC(=O)[C@H](Cc2ccccc2)N(C)C1=O [compound 380, cyclo(F-NMeArgMe-Phe4Gn-cBuA-TyrOMe-Abp-NMeF-aMeCl-ClAc)] ({CH2CO}-F[NMeArg(Me)][Phe(4-guanidino)][Cba]Y(Me)[Ahp(2)][NMeF][αMeC]-NH2; thioether N-8)",> 50.8
9,"CCCC[C@@H]1NC(=O)[C@H](Cc2cncnc2)NC(=O)[C@H](C)N(C)C(=O)[C@H](Cc2ccccc2)OC(=O)C23CC(CNC(=O)[C@H](Cc4ccccc4)N(C)C(=O)[C@H](CCC(C)C)NC(=O)[C@H](Cc4ccccc4F)NC1=O)(C2)C3 [compound 132, cyclo(FLac-NMeA-PyrimAla-Nle-Phe2F-hL-NMeF-amBCP)] (cyclo([NMeA][Ala(pyrimidin-5-yl)][Nle][Phe(2-F)][hLeu][NMeF][X1][PhLac]))",1.11
10,"CCCCC[C@@H]1NC(=O)[C@H](Cc2ccc(OC)cc2)NC(=O)[C@H](CC2CCC2)NC(=O)[C@H](Cc2cccnc2)NC(=O)[C@H](C)N(C)C(=O)[C@H](Cc2ccccc2)NC(=O)CSC[C@@](C)(C(N)=O)NC(=O)[C@H](Cc2ccccc2)N(C)C1=O [compound 158, cyclo(F-NMeA-3Pal-cBuA-TyrOMe-Ahp-NMeF-aMeCl-ClAc)] ({CH2CO}-F[NMeA][3Pal][Cba]Y(Me)[Ahp(2)][NMeF][αMeC]-NH2; thioether N-8)",> 50.8
11,"CCCC[C@@H]1NC(=O)[C@H](Cc2cccnc2)NC(=O)[C@H](CCCn2ccnc2)N(C)C(=O)[C@H](Cc2ccccc2)OC(=O)C23CC(CNC(=O)[C@H](Cc4ccccc4)N(C)C(=O)[C@H](CCCC)NC(=O)[C@H](Cc4ccccc4F)NC1=O)(C2)C3 [compound 233, cyclo(FLac-NMeNvalmid-3Pal-Nle-Phe2F-Nle-NMeF-amBCP)] (cyclo([3Pal][Nle][Phe(2-F)][Nle][NMeF][X1][PhLac][NMeNva(5-imidazol-1-yl)]))",5.16
12,"CCCC[C@@H]1NC(=O)[C@H](Cc2cncnc2)NC(=O)[C@H](C)N(C)C(=O)[C@H](Cc2ccccc2)OC(=O)C23CC(CNC(=O)[C@H](Cc4cccc(C)c4)N(C)C(=O)[C@H](CCCC)NC(=O)[C@H](Cc4ccccc4F)NC1=O)(C2)C3 [compound 172, cyclo(FLac-NMeA-PyrimAla-Nle-Phe2F-Nle-NMePhe3Me-amBCP)] (cyclo([NMeA][Ala(pyrimidin-5-yl)][Nle][Phe(2-F)][Nle][NMePhe(3-Me)][X1][PhLac]))",0.256
13,"CCCC[C@@H]1NC(=O)[C@H](Cc2cccnc2)NC(=O)[C@H](CCCN(C)C(=N)NC)N(C)C(=O)[C@H](Cc2ccccc2)OC(=O)CSC[C@@](C)(C(N)=O)NC(=O)[C@H](Cc2cccnc2)N(C)C(=O)[C@H](CCCC)NC(=O)[C@H](Cc2ccccc2F)NC1=O [compound 396, cyclo(FLac-NMeArg1MeMe-3Pal-Nle-Phe2F-Nle-NMe3Pal-aMeCl-ClAc)] ({CH2CO}-[PhLac][X22][3Pal][Nle][Phe(2-F)][Nle][NMe3Pal][αMeC]-NH2; thioether N-8)",> 50.8
14,"CCCCC[C@@H]1NC(=O)[C@H](Cc2ccc(OC)cc2)NC(=O)[C@H](CC2CCC2)NC(=O)[C@H](Cc2ccc(NC(=N)N)cc2)NC(=O)CN(CCCN)C(=O)[C@H](Cc2ccccc2)NC(=O)CSC[C@@](C)(C(N)=O)NC(=O)[C@H](Cc2ccccc2)N(C)C1=O [compound 388, cyclo(F-NPrNH2G-Phe4Gn-cBuA-TyrOMe-Ahp-NMeF-aMeCl-ClAc)] ({CH2CO}-F[Gly(N(CH2)3NH2)][Phe(4-guanidino)][Cba]Y(Me)[Ahp(2)][NMeF][αMeC]-NH2; thioether N-8)",> 50.8
15,"CCCC[C@@H]1NC(=O)[C@H](Cc2cncnc2)NC(=O)[C@H](CCN=[N+]=[N-])N(C)C(=O)[C@H](Cc2ccccc2)OC(=O)C23CC(CNC(=O)[C@H](Cc4cccnc4)N(C)C(=O)[C@H](CCCC)NC(=O)[C@H](Cc4ccccc4F)NC1=O)(C2)C3 [compound 242, cyclo(FLac-NMeDabN3-PyrimAla-Nle-Phe2F-Nle-NMe3Pal-amBCP)] (cyclo([NMe3Pal][X1][PhLac][NMeAha][Ala(pyrimidin-5-yl)][Nle][Phe(2-F)][Nle]))",11.6
16,"CCCC[C@@H]1NC(=O)[C@H](Cc2cccnc2)NC(=O)[C@H](CC)N(C)C(=O)[C@H](Cc2ccccc2)OC(=O)C23CC(CNC(=O)[C@H](Cc4cccnc4)N(C)C(=O)[C@H](CCCC)NC(=O)[C@H](Cc4ccccc4F)NC1=O)(C2)C3 [compound 404, cyclo(FLac-NMeAbu-3Pal-Nle-Phe2F-Nle-NMe3Pal-amBCP)] (cyclo([3Pal][Nle][Phe(2-F)][Nle][NMe3Pal][X1][PhLac][NMeAbu]))",31
17,"C[C@H]1C(=O)N[C@@H](Cc2cncnc2)C(=O)N[C@@H](CC2CC2)C(=O)N[C@@H](Cc2ccccc2F)C(=O)N[C@@H](CCC(C)(F)F)C(=O)N(C)[C@@H](Cc2ccccc2)C(=O)NCC23CC(C2)(C3)C(=O)O[C@@H](Cc2ccccc2)C(=O)N1C [compound 276, cyclo(FLac-NMeA-PyrimAla-cPrA-Phe2F-Nle3F2-NMeF-amBCP)] (cyclo([Ala(cPr)][Phe(2-F)][Nle(5,5-F2)][NMeF][X1][PhLac][NMeA][Ala(pyrimidin-5-yl)]))",0.666
18,"CCCC[C@@H]1NC(=O)[C@H](Cc2ccc(NC(=N)N)cc2)NC(=O)[C@H](CCCN(C)C(=N)NC)N(C)C(=O)[C@H](Cc2ccccc2)NC(=O)[C@H]2C[C@@H](CNC(=O)[C@H](Cc3ccccc3)N(C)C(=O)[C@H](CCCC)NC(=O)[C@H](Cc3ccc(OC)cc3)NC1=O)C2 [compound 384, cyclo(F-NMeArg1MeMe-Phe4Gn-Nle-TyrOMe-Nle-NMeF-c3amCblc)] (cyclo(F[X22][Phe(4-guanidino)][Nle]Y(Me)[Nle][NMeF][cBu(1-CO,cis-3-CH2NH)]))",> 50.8
19,"CCCC[C@@H]1NC(=O)[C@H](Cc2ccccc2F)NC(=O)[C@H](CC2CCCC2)NC(=O)[C@H](Cc2cncnc2)NC(=O)[C@H](C)N(C)C(=O)[C@H](Cc2ccccc2)OC(=O)C23CC(CNC(=O)[C@H](Cc4cccnc4)N(C)C1=O)(C2)C3 [compound 126, cyclo(FLac-NMeA-PyrimAla-cPeA-Phe2F-Nle-NMe3Pal-amBCP)] (cyclo([Ala(cPent)][Phe(2-F)][Nle][NMe3Pal][X1][PhLac][NMeA][Ala(pyrimidin-5-yl)]))",17.4
20,"C[C@H]1C(=O)N[C@@H](Cc2cncnc2)C(=O)N[C@@H](CC2CC2)C(=O)N[C@@H](Cc2ccccc2F)C(=O)N[C@@H](CCC(C)(C)F)C(=O)N(C)[C@@H](Cc2ccccc2)C(=O)NCC23CC(C2)(C3)C(=O)C[C@@H](Cc2ccccc2)C(=O)N1C [compound 273, cyclo(CPhe-NMeA-PyrimAla-cPrA-Phe2F-hL3F-NMeF-amBCP)] (cyclo([Ala(cPr)][Phe(2-F)][X11][NMeF][X34][NMeA][Ala(pyrimidin-5-yl)]))",1.23

# Reference: patent publication US20260001914A1, “MACROCYCLIC PEPTIDES TARGETING KRAS” (Merck Sharp & Dohme LLC, priority 2022, published 2026)
